Test results: patent publication US11178869B2, “Microbiocidal quinoline (thio)carboxamide derivatives” (priority 2017, dated 2021)
Read-outs that look alike come from different tables or passages of the source.

Tests used:
[1] = system: Botryotinia fuckeliana (Botrytis cinerea); assay: Botryotinia fuckeliana (Botrytis cinerea) / liquid culture (gray mould); type: cell-based; conditions: 72 h, read-out: disease control
[2] = system: Magnaporthe grisea (Pyricularia oryzae); assay: microbe, parasite or virus in culture; type: cell-based; conditions: read-out: control of Magnaporthe grisea
Fusarium culmorum [3] = assay: microbe, parasite or virus in culture; type: cell-based; conditions: read-out: disease control
Fusarium culmorum [4] = assay: whole plant or invertebrate; type: in vivo, Fusarium culmorum on wheat spikelets cv. Monsun; conditions: in Triticum aestivum, 144 h, read-out: control of Fusarium culmorum
[5] = system: Glomerella lagenarium (Colletotrichum lagenarium); assay: Glomerella lagenarium (Colletotrichum lagenarium) / liquid culture (anthracnose); type: cell-based; conditions: Colletotrichum orbiculare, read-out: disease control
Sclerotinia sclerotiorum = Sclerotinia sclerotiorum / liquid culture (cottony rot); conditions: read-out: control of Sclerotinia sclerotiorum
Procedure: Sclerotinia sclerotiorum/Liquid Culture (Cottony Rot)
Mycelia fragments of a newly grown liquid culture of the fungus are directly mixed into nutrient broth (Vogels broth). After placing a (DMSO) solution of test compound into a microtiter plate (96-well format) the nutrient broth containing the fungal material is added. The test plates are incubated at 24° C. and the inhibition of growth is determined photometrically 3-4 days after application.

[6] = system: Monographella nivalis (Microdochium nivale); assay: Monographella nivalis (Microdochium nivale) / liquid culture (foot rot cereals); type: cell-based; conditions: read-out: disease control
Gaeumannomyces graminis = Gaeumannomyces graminis / liquid culture (take-all of cereals); type: cell-based; conditions: compared to untreated control, 4-5 days after application
[7] = 200 ppm, compared to untreated control, growth inhibition photometrically 3-4 days after application
[8] = 200 ppm, compared to untreated control, growth inhibition photometrically 4-5 days after application

SMILES: CC(C)[C@@](C)(C#Cc1ccccc1)NC(=O)c1cnc2c(F)cccc2c1 (single isomer, unassigned) [Compound G-7]
- inhibition of growth at 200 ppm [1, 7]: ≥ 80%
- inhibition of growth at 20 ppm [2]: ≥ 80%
- inhibition of growth at 200 ppm (Fusarium culmorum [3]): ≥ 80%
- pest or weed control at 200 ppm (Fusarium culmorum [4]): ≥ 80%
- inhibition of growth at 200 ppm [5, 7]: ≥ 80%
- inhibition of growth at 20 ppm (Sclerotinia sclerotiorum): ≥ 80%
- inhibition of growth at 200 ppm [6, 8]: ≥ 80%

SMILES: CC(C)[C@](C)(C#Cc1ccccc1)NC(=O)c1cnc2c(F)cccc2c1 (single isomer, unassigned) [Compound G-8]
- inhibition of growth at 200 ppm [1, 7]: ≥ 80%
- inhibition of growth at 20 ppm [2]: ≥ 80%
- inhibition of growth at 200 ppm (Fusarium culmorum [3]): ≥ 80%
- inhibition of growth at 20 ppm (Gaeumannomyces graminis): ≥ 80%
- inhibition of growth at 200 ppm [5, 7]: ≥ 80%
- inhibition of growth at 200 ppm [6, 8]: ≥ 80%

SMILES: CC(CC#CC1CC1)(CC(F)(F)F)NC(=O)c1cnc2c(F)cccc2c1 (stereo not shown) [Compound E-1, N-[4-cyclopropyl-1-methyl-1-(2,2,2-trifluoroethyl)but-3-ynyl]-8-fluoro-quinoline-3-carboxamide]
- inhibition of growth at 200 ppm [1]: ≥ 80%
- inhibition of growth at 200 ppm (Fusarium culmorum [3]): ≥ 80%
- melting point: 110 to 112 °C
- inhibition of growth at 200 ppm [5]: ≥ 80%
- inhibition of growth at 200 ppm [6]: ≥ 80%

SMILES: CC(C)C(C#Cc1ccccc1)NC(=O)c1cnc2c(F)cccc2c1 (stereo not shown) [Compound F-3, 8-fluoro-N-(1-isopropyl-3-phenyl-prop-2-ynyl)quinoline-3-carboxamide]
- inhibition of growth at 200 ppm [1, 7]: ≥ 80%
- inhibition of growth at 20 ppm [2]: ≥ 80%
- inhibition of growth at 200 ppm (Fusarium culmorum [3]): ≥ 80%
- melting point: 156 to 158 °C
- pest or weed control at 200 ppm (Fusarium culmorum [4]): ≥ 80%
- inhibition of growth at 200 ppm [5, 7]: ≥ 80%
- inhibition of growth at 200 ppm [6, 8]: ≥ 80%

SMILES: O=C(NC(C#Cc1ccccc1)CCC(F)(F)F)c1cnc2c(F)cccc2c1 (stereo not shown) [Compound F-4, 8-fluoro-N-[4,4,4-trifluoro-1-(2-phenylethynyl)butyl]quinoline-3-carboxamide]
- inhibition of growth at 200 ppm [1, 7]: ≥ 80%
- inhibition of growth at 20 ppm [2]: ≥ 80%
- inhibition of growth at 200 ppm (Fusarium culmorum [3]): ≥ 80%
- inhibition of growth at 20 ppm (Gaeumannomyces graminis): ≥ 80%
- inhibition of growth at 200 ppm [6, 8]: ≥ 80%

SMILES: CCC(C#Cc1ccccc1)(CC)NC(=O)c1cnc2c(F)cccc2c1 [Compound F-6, N-(1,1-diethyl-3-phenyl-prop-2-ynyl)-8-fluoro-quinoline-3-carboxamide]
- inhibition of growth at 200 ppm [1, 7]: ≥ 80%
- inhibition of growth at 200 ppm (Fusarium culmorum [3]): ≥ 80%
- inhibition of growth at 20 ppm (Gaeumannomyces graminis): ≥ 80%
- inhibition of growth at 200 ppm [5, 7]: ≥ 80%
- inhibition of growth at 200 ppm [6, 8]: ≥ 80%

SMILES: CC(C)C(C)(C#Cc1ccccc1F)NC(=O)c1cnc2c(F)cccc2c1 (stereo not shown) [Compound F-12, 8-fluoro-N-[3-(2-fluorophenyl)-1-isopropyl-1-methyl-prop-2-ynyl]quinoline-3-carboxamide]
- inhibition of growth at 200 ppm [1, 7]: ≥ 80%
- inhibition of growth at 20 ppm [2]: ≥ 80%
- inhibition of growth at 200 ppm (Fusarium culmorum [3]): ≥ 80%
- inhibition of growth at 20 ppm (Gaeumannomyces graminis): ≥ 80%
- pest or weed control at 200 ppm (Fusarium culmorum [4]): ≥ 80%
- inhibition of growth at 200 ppm [5, 7]: ≥ 80%
- inhibition of growth at 20 ppm (Sclerotinia sclerotiorum): ≥ 80%
- inhibition of growth at 200 ppm [6, 8]: ≥ 80%

SMILES: Cc1ccccc1C#CC(C)(NC(=O)c1cnc2c(F)cccc2c1)C(C)C (stereo not shown) [Compound F-13, 8-fluoro-N-[1-isopropyl-1-methyl-3-(o-tolyl)prop-2-ynyl]quinoline-3-carboxamide]
- inhibition of growth at 200 ppm [1, 7]: ≥ 80%
- inhibition of growth at 20 ppm [2]: ≥ 80%
- inhibition of growth at 200 ppm (Fusarium culmorum [3]): ≥ 80%
- melting point: 138 to 141 °C
- inhibition of growth at 20 ppm (Gaeumannomyces graminis): ≥ 80%
- inhibition of growth at 200 ppm [5, 7]: ≥ 80%
- inhibition of growth at 200 ppm [6, 8]: ≥ 80%

SMILES: CCC(C)(C#Cc1ccccc1C)NC(=O)c1cnc2c(F)cccc2c1 (stereo not shown) [Compound F-15, N-[1-ethyl-1-methyl-3-(o-tolyl)prop-2-ynyl]-8-fluoro-quinoline-3-carboxamide]
- inhibition of growth at 200 ppm [1, 7]: ≥ 80%
- inhibition of growth at 20 ppm [2]: ≥ 80%
- inhibition of growth at 200 ppm (Fusarium culmorum [3]): ≥ 80%
- melting point: 143 to 146 °C
- inhibition of growth at 200 ppm [5, 7]: ≥ 80%
- inhibition of growth at 20 ppm (Sclerotinia sclerotiorum): ≥ 80%
- inhibition of growth at 200 ppm [6, 8]: ≥ 80%

SMILES: COc1ccc(Cl)cc1C#CC(C)(C)NC(=O)c1cnc2c(F)cccc2c1 [Compound F-23, N-[3-(5-chloro-2-methoxy-phenyl)-1,1-dimethyl-prop-2-ynyl]-8-fluoro-quinoline-3-carboxamide]
- inhibition of growth at 200 ppm [1, 7]: ≥ 80%
- inhibition of growth at 200 ppm (Fusarium culmorum [3]): ≥ 80%
- inhibition of growth at 20 ppm (Gaeumannomyces graminis): ≥ 80%
- inhibition of growth at 200 ppm [5, 7]: ≥ 80%
- inhibition of growth at 200 ppm [6, 8]: ≥ 80%

SMILES: Cc1ccc(F)cc1C#CC(C)(C)NC(=O)c1cnc2c(F)cccc2c1 [Compound F-24, 8-fluoro-N-[3-(5-fluoro-2-methyl-phenyl)-1,1-dimethyl-prop-2-ynyl]quinoline-3-carboxamide]
- inhibition of growth at 200 ppm [1, 7]: ≥ 80%
- inhibition of growth at 200 ppm (Fusarium culmorum [3]): ≥ 80%
- inhibition of growth at 20 ppm (Gaeumannomyces graminis): ≥ 80%
- pest or weed control at 200 ppm (Fusarium culmorum [4]): ≥ 80%
- inhibition of growth at 200 ppm [5, 7]: ≥ 80%
- inhibition of growth at 200 ppm [6, 8]: ≥ 80%

SMILES: CC(C)(C#Cc1ccc(F)cc1F)NC(=O)c1cnc2c(F)cccc2c1 [Compound F-25, N-[3-(2,4-difluorophenyl)-1,1-dimethyl-prop-2-ynyl]-8-fluoro-quinoline-3-carboxamide]
- inhibition of growth at 200 ppm [1, 7]: ≥ 80%
- inhibition of growth at 200 ppm (Fusarium culmorum [3]): ≥ 80%
- inhibition of growth at 20 ppm (Gaeumannomyces graminis): ≥ 80%
- pest or weed control at 200 ppm (Fusarium culmorum [4]): ≥ 80%
- inhibition of growth at 200 ppm [5, 7]: ≥ 80%
- inhibition of growth at 200 ppm [6, 8]: ≥ 80%

SMILES: CC(C)C(C)(C#Cc1ccccc1)NC(=O)c1cnc2c(F)cccc2c1 (stereo not shown) [Compound F-46, 8-fluoro-N-(1-isopropyl-1-methyl-3-phenyl-prop-2-ynyl)quinoline-3-carboxamide]
- inhibition of growth at 200 ppm [1, 7]: ≥ 80%
- inhibition of growth at 20 ppm [2]: ≥ 80%
- inhibition of growth at 200 ppm (Fusarium culmorum [3]): ≥ 80%
- melting point: 118 to 122 °C
- inhibition of growth at 20 ppm (Gaeumannomyces graminis): ≥ 80%
- pest or weed control at 200 ppm (Fusarium culmorum [4]): ≥ 80%
- inhibition of growth at 200 ppm [5, 7]: ≥ 80%
- inhibition of growth at 200 ppm [6, 8]: ≥ 80%

SMILES: Cc1ccccc1C#CC(C)(C)NC(=O)c1cnc2c(F)cccc2c1 [Compound F-47, N-[1,1-dimethyl-3-(o-tolyl)prop-2-ynyl]-8-fluoro-quinoline-3-carboxamide]
- inhibition of growth at 200 ppm [1, 7]: ≥ 80%
- inhibition of growth at 20 ppm [2]: ≥ 80%
- inhibition of growth at 200 ppm (Fusarium culmorum [3]): ≥ 80%
- melting point: 156 to 160 °C
- inhibition of growth at 20 ppm (Gaeumannomyces graminis): ≥ 80%
- pest or weed control at 200 ppm (Fusarium culmorum [4]): ≥ 80%
- inhibition of growth at 200 ppm [5, 7]: ≥ 80%
- inhibition of growth at 200 ppm [6, 8]: ≥ 80%

SMILES: CC(C)(C#Cc1cccc(C(F)(F)F)c1)NC(=O)c1cnc2c(F)cccc2c1 [Compound F-48, N-[1,1-dimethyl-3-[3-(trifluoromethyl)phenyl]prop-2-ynyl]-8-fluoro-quinoline-3-carboxamide]
- inhibition of growth at 200 ppm [1, 7]: ≥ 80%
- inhibition of growth at 20 ppm [2]: ≥ 80%
- inhibition of growth at 200 ppm (Fusarium culmorum [3]): ≥ 80%
- melting point: 181 to 184 °C
- inhibition of growth at 20 ppm (Gaeumannomyces graminis): ≥ 80%
- inhibition of growth at 200 ppm [5, 7]: ≥ 80%
- inhibition of growth at 200 ppm [6, 8]: ≥ 80%

SMILES: CC(C)(C#Cc1ccccc1)NC(=O)c1cnc2ccccc2c1 [Compound F-49, N-(1,1-dimethyl-3-phenyl-prop-2-ynyl)quinoline-3-carboxamide]
- inhibition of growth at 200 ppm [1, 7]: ≥ 80%
- inhibition of growth at 20 ppm [2]: ≥ 80%
- inhibition of growth at 200 ppm (Fusarium culmorum [3]): ≥ 80%
- melting point: 136 to 141 °C
- inhibition of growth at 20 ppm (Gaeumannomyces graminis): ≥ 80%
- pest or weed control at 200 ppm (Fusarium culmorum [4]): ≥ 80%
- inhibition of growth at 200 ppm [5, 7]: ≥ 80%
- inhibition of growth at 200 ppm [6, 8]: ≥ 80%

SMILES: Cc1nc2c(F)cccc2cc1C(=O)NC(C)(C)C#Cc1ccccc1 [Compound F-50, N-(1,1-dimethyl-3-phenyl-prop-2-ynyl)-8-fluoro-2-methyl-quinoline-3-carboxamide]
- inhibition of growth at 200 ppm [1, 7]: ≥ 80%
- inhibition of growth at 20 ppm [2]: ≥ 80%
- inhibition of growth at 200 ppm (Fusarium culmorum [3]): ≥ 80%
- melting point: 118 to 123 °C
- inhibition of growth at 200 ppm [5, 7]: ≥ 80%
- inhibition of growth at 20 ppm (Sclerotinia sclerotiorum): ≥ 80%

SMILES: Cc1c(C(=O)NC(C)(C)C#Cc2ccccc2)cnc2c(F)cccc12 [Compound F-51, N-(1,1-dimethyl-3-phenyl-prop-2-ynyl)-8-fluoro-4-methyl-quinoline-3-carboxamide]
- inhibition of growth at 200 ppm [1, 7]: ≥ 80%
- inhibition of growth at 20 ppm [2]: ≥ 80%
- inhibition of growth at 200 ppm (Fusarium culmorum [3]): ≥ 80%
- inhibition of growth at 20 ppm (Gaeumannomyces graminis): ≥ 80%
- inhibition of growth at 200 ppm [5, 7]: ≥ 80%
- inhibition of growth at 20 ppm (Sclerotinia sclerotiorum): ≥ 80%
- inhibition of growth at 200 ppm [6, 8]: ≥ 80%

SMILES: C#CC(C)(C)NC(=O)c1cnc2c(F)cccc2c1 [Compound F-54, N-(1,1-dimethylprop-2-ynyl)-8-fluoro-quinoline-3-carboxamide]
- inhibition of growth at 200 ppm (Fusarium culmorum [3]): ≥ 80%
- melting point: 148 to 150 °C
- inhibition of growth at 200 ppm [6, 8]: ≥ 80%

SMILES: CC(C)C[C@H](C#Cc1ccccc1)NC(=O)c1cnc2c(F)cccc2c1 [Compound G-3, 8-fluoro-N-[(1R)-3-methyl-1-(2-phenylethynyl)butyl]quinoline-3-carboxamide]
- inhibition of growth at 200 ppm [1, 7]: ≥ 80%
- inhibition of growth at 20 ppm [2]: ≥ 80%
- inhibition of growth at 200 ppm (Fusarium culmorum [3]): ≥ 80%
- inhibition of growth at 20 ppm (Gaeumannomyces graminis): ≥ 80%
- inhibition of growth at 200 ppm [5, 7]: ≥ 80%
- inhibition of growth at 200 ppm [6, 8]: ≥ 80%

SMILES: CC(C)C[C@](C)(C#Cc1ccccc1)NC(=O)c1cnc2c(F)cccc2c1 [Compound G-6, N-[(1R)-1,3-dimethyl-1-(2-phenylethynyl)butyl]-8-fluoro-quinoline-3-carboxamide]
- inhibition of growth at 200 ppm [1, 7]: ≥ 80%
- inhibition of growth at 20 ppm [2]: ≥ 80%
- inhibition of growth at 200 ppm (Fusarium culmorum [3]): ≥ 80%
- melting point: 128 to 130 °C
- inhibition of growth at 20 ppm (Gaeumannomyces graminis): ≥ 80%
- inhibition of growth at 200 ppm [6, 8]: ≥ 80%
